# Test system: yeast genes (level of expressed mRNA)
# Assay: DNA chip analysis of expressed mRNA of yeast genes after 2 h culture with a toxic chemical substance
# Format: cell-based, Saccharomyces cerevisiae S288C
# Protocol: Yeast (Saccharomyces cerevtisiae S288C (α SUC2mal mel gap2 CUP1)) were cultured at 25° C. on YPD medium (yeast extract 1%, polypepton 2%, glucose 2%). One of toxic chemical substances was added to the cell at logarithmic growth phase, and the cell was further cultured for two hours. Cell was cultured without any chemical substance in the same condition, and was used as control. Concentrations of the chemical substances were defined to inhibit the growth of the yeast but not lead to death.
# After the completion of cultivation, the culture was centrifuged to collect the cells. To the cells, sodium acetate buffer (50 mM sodium acetate, 10 mM EDTA, 1% SDS) was added, and the mixture was shaken at 65° C. for five minutes, followed by returning to room temperature, and obtaining the supernatant, which procedure was repeated two times. To the supernatant, ½ amount of a solution of phenol/chloroform was added, and the mixture was centrifuged to give a supernatant, which was added with an equal amount of chloroform, and the mixture was centrifuged to give a supernatant. To the supernatant, an equal amount of isopropanol containing 0.3 M sodium acetate was added, and the mixture was allowed to stand at room temperature for 30 minutes, after which the mixture was centrifuged to give a sediment of the whole RNAs. Seventy % ethanol was added to the sediment, and the mixture was again centrifuged to give a sediment, which was then dried and dissolved in water. mRNA was isolated from the whole RNAs as followings. In view of the fact that a poly A chain is attached to the 3′ terminus of mRNA, a polynucleotide having a poly T structure which was immobilized on the surface of latex beads was used to trap the mRNA, and then the mRNA was washed and eluted with spine column (Oligotex-dT30<Super>mRNA Purification Kit, Takara). Reverse transcription of the mRNA was conducted with a reverse transcriptase (Super Script II Reverse Transcriptase; catalogue No. 18064-014, GibcoBRL) using fluorescence-labeled nucleotides to give cDNAs that were introduced with Cy3-dUTP or Cy5-dUTP during the reverse transcription.
# The labeled cDNAs were dissolved in TE buffer (10 mM Tris-HCl/1 mM EDTA, pH8.0), and the solution was dropped on the DNA chip containing the whole genes of yeast (DNA Chip Research Inc. Japan) so that the cDNAs were hybridized on the DNA chip at 65° C. for over 12 hours. The fluoresces intensity of the DNA chip was read with a scanner, and the ratio relative to the fluorescence intensity resulting from the absence of chemical substance was estimated as the following, which is shown in Tables 1 to 9: [formula]
# In the Tables, “Intensity” indicated in the rightmost column is a value of the level of expressed mRNA of each gene in control cells as divided by the average level of the expressions of the whole genes.
smiles,measurement,setting,value
"CCCCCCCCCCCCOS(=O)(=O)[O-].[Na+] [(18), sodium lauryl sulfate]",The level of expressed mRNA in the presence of chemical substance/absence: YGR293C,gene YGR293C,0.9
same,The level of expressed mRNA in the presence of chemical substance/absence: YHL006C,gene YHL006C,1.0
same,The level of expressed mRNA in the presence of chemical substance/absence: YHL021C,gene YHL021C,3.6
same,The level of expressed mRNA in the presence of chemical substance/absence: YHL037C,gene YHL037C,0.9
same,level of expressed mRNA in the presence of chemical substance/in its absence,gene YHR037W,1.4
same,The level of expressed mRNA in the presence of chemical substance/absence: YHR083W,gene YHR083W,1.0
same,level of expressed mRNA in the presence of chemical substance/in its absence,gene YHR092C,1.3
same,The level of expressed mRNA in the presence of chemical substance/absence: YHR095W,gene YHR095W,0.7
same,The level of expressed mRNA in the presence of chemical substance/absence: YHR105W,gene YHR105W,0.9
same,The level of expressed mRNA in the presence of chemical substance/absence: YHR134W,gene YHR134W,1.3
same,level of expressed mRNA in the presence of chemical substance/in its absence,gene YHR137W,1.3
same,The level of expressed mRNA in the presence of chemical substance/absence: YHR180W,gene YHR180W,1.0
same,The level of expressed mRNA in the presence of chemical substance/absence: YHR181W,gene YHR181W,0.9
same,level of expressed mRNA in the presence of chemical substance/in its absence,gene YHR190W,1.8
same,level of expressed mRNA in the presence of chemical substance/in its absence,gene YIL033C,1.2
same,The level of expressed mRNA in the presence of chemical substance/absence: YIL108W,gene YIL108W,0.7
same,The level of expressed mRNA in the presence of chemical substance/absence: YIL127C,gene YIL127C,0.6
same,level of expressed mRNA in the presence of chemical substance/in its absence,gene YIL154C,1.0
same,The level of expressed mRNA in the presence of chemical substance/absence: YIL165C,gene YIL165C,1.3
same,level of expressed mRNA in the presence of chemical substance/in its absence,gene YIL167W,0.8
same,level of expressed mRNA in the presence of chemical substance/in its absence,gene YIR035C,0.9
same,The level of expressed mRNA in the presence of chemical substance/absence: YJL017W,gene YJL017W,1.0
same,The level of expressed mRNA in the presence of chemical substance/absence: YJL032W,gene YJL032W,1.1
same,The level of expressed mRNA in the presence of chemical substance/absence: YJL037W,gene YJL037W,0.9
same,The level of expressed mRNA in the presence of chemical substance/absence: YJL049W,gene YJL049W,1.1
same,level of expressed mRNA in the presence of chemical substance/in its absence,gene YJL088W,0.9
same,The level of expressed mRNA in the presence of chemical substance/absence: YJL097W,gene YJL097W,1.1
same,level of expressed mRNA in the presence of chemical substance/in its absence,gene YJL132W,1.5
same,level of expressed mRNA in the presence of chemical substance/in its absence,gene YJL196C,1.9
same,The level of expressed mRNA in the presence of chemical substance/absence: YJR030C,gene YJR030C,0.9
same,The level of expressed mRNA in the presence of chemical substance/absence: YJR044C,gene YJR044C,1.6
same,level of expressed mRNA in the presence of chemical substance/in its absence,gene YJR142W,1.4
same,level of expressed mRNA in the presence of chemical substance/in its absence,gene YJR148W,1.7
same,level of expressed mRNA in the presence of chemical substance/in its absence,gene YJR159W,2.3
same,The level of expressed mRNA in the presence of chemical substance/absence: YKL051W,gene YKL051W,1.4
same,The level of expressed mRNA in the presence of chemical substance/absence: YKL059C,gene YKL059C,0.9
same,level of expressed mRNA in the presence of chemical substance/in its absence,gene YKL067W,3.2
same,The level of expressed mRNA in the presence of chemical substance/absence: YKL090W,gene YKL090W,1.0
same,The level of expressed mRNA in the presence of chemical substance/absence: YKL094W,gene YKL094W,1.9
same,The level of expressed mRNA in the presence of chemical substance/absence: YKL097C,gene YKL097C,0.5
same,The level of expressed mRNA in the presence of chemical substance/absence: YKL100C,gene YKL100C,1.5
same,level of expressed mRNA in the presence of chemical substance/in its absence,gene YKR039W,1.1
same,The level of expressed mRNA in the presence of chemical substance/absence: YKR040C,gene YKR040C,0.8
same,The level of expressed mRNA in the presence of chemical substance/absence: YLR097C,gene YLR097C,1.7
same,level of expressed mRNA in the presence of chemical substance/in its absence,gene YLR142W,3.2
same,level of expressed mRNA in the presence of chemical substance/in its absence,gene YLR180W,0.7
same,The level of expressed mRNA in the presence of chemical substance/absence: YLR226W,gene YLR226W,1.0
same,level of expressed mRNA in the presence of chemical substance/in its absence,gene YLR273C,1.0
same,level of expressed mRNA in the presence of chemical substance/in its absence,gene YLR300W,0.5
same,level of expressed mRNA in the presence of chemical substance/in its absence,gene YLR307W,1.0
same,The level of expressed mRNA in the presence of chemical substance/absence: YLR338W,gene YLR338W,0.6
same,The level of expressed mRNA in the presence of chemical substance/absence: YLR339C,gene YLR339C,0.6
same,The level of expressed mRNA in the presence of chemical substance/absence: YLR392C,gene YLR392C,1.6
same,The level of expressed mRNA in the presence of chemical substance/absence: YLR415C,gene YLR415C,1.0
same,The level of expressed mRNA in the presence of chemical substance/absence: YLR427W,gene YLR427W,1.0
same,The level of expressed mRNA in the presence of chemical substance/absence: YML013W,gene YML013W,0.8
same,The level of expressed mRNA in the presence of chemical substance/absence: YML029W,gene YML029W,1.0

# Source: US20050112573A1, “Method of detecting toxic substance” (priority 2001, published 2005)
